Laboratory results reported in US20090104167A1, “Prophylactic/Ameliorating Agent for Menopausal Disorder and Functional Beverage/Food” (Calpis Co., Ltd., priority 2005, published 2009).

Tests used:
[1] = biological target: T1, human estrogen receptor α (Homo sapiens, UniProt P03372); experiment: Inhibition of [3H]estradiol binding to estrogen receptor α; settings: for binding inhibition rate to estrogen receptor α, inhibition rate (%): One millimolar test sample, 0.5 nM tritium-labeled estradiol, 25° C., 2 hours, pH 7.4
T1 sequence (P03372 1-595): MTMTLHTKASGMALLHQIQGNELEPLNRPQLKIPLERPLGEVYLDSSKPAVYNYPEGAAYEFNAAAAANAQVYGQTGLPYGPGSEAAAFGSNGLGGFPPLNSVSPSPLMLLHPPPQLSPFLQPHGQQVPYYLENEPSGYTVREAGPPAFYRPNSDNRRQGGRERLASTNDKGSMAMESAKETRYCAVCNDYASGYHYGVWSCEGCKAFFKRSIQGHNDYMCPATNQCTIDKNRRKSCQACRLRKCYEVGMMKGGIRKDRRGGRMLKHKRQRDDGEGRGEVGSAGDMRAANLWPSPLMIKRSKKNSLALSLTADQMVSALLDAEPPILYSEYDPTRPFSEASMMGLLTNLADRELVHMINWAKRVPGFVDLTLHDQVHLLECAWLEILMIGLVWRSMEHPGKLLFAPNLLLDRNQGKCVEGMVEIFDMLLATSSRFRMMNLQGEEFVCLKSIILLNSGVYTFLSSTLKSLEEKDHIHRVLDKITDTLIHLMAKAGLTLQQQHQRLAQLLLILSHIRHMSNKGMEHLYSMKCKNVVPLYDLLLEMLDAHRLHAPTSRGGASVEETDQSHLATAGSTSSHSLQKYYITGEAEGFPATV
Method: (§1) One millimolar of a test sample (pinoresinol diglycoside, pinoresinol and secoisolariciresinol) and 0.5 nM of tritium-labeled estradiol were reacted in 10 mM of tris buffer at pH 7.4 (with 0.1% BSA, 10% Glycerol, 1 mM DTT) containing a human estrogen receptor α or β at 25° C. for 2 hours. After completion of the reaction, the receptor was collected and washed to measure the amount of the tritium-labeled estradiol bound to the receptor according to a conventional method. The binding level of [^3H] Estradiol in the presence of a lignan or a metabolic intermediate was calculated with the binding of 0.5 nM of [^3H] Estradiol to the receptor as 100%, which was subtracted from 100 to define a binding inhibition rate.

[2] = biological target: human estrogen receptor β (Homo sapiens, UniProt Q92731); experiment: Inhibition of [3H]estradiol binding to estrogen receptor β; settings: One millimolar test sample, 0.5 nM tritium-labeled estradiol, 25° C., 2 hours, pH 7.4
Chain of human estrogen receptor β (Q92731 whole entry): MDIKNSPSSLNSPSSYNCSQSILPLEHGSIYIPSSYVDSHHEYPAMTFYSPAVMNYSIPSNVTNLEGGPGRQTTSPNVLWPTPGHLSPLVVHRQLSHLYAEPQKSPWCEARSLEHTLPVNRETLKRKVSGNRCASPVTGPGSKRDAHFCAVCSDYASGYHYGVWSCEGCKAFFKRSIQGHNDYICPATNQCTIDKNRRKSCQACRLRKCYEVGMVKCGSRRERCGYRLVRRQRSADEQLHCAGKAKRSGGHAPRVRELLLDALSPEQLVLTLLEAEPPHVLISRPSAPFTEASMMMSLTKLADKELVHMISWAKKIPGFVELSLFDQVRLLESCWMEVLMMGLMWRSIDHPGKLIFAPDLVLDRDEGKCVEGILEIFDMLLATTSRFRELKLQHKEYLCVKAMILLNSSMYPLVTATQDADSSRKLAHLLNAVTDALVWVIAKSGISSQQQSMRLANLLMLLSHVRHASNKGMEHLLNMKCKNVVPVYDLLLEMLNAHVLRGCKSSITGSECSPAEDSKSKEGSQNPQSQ
Method: as §1

[3] = Lignan-metabolizing ability of microorganisms: conversion of pinoresinol to secoisolariciresinol (HPLC); parameters: key to pinoresinol to secoisolariciresinol: o indicates that the lignan was converted in 50% or more; x indicates that most of the lignan was not converted; settings: for pinoresinol to secoisolariciresinol: lignan 0.5 mM in MRS or GAM medium, culture at 37° C., HPLC
Method: Lignan-metabolizing abilities of various types of microorganisms were evaluated. The various microorganisms shown in the following Tables 1 to 3 were pre-cultured in MRS medium or GAM medium at 37° C. for 20 to 24 hours, and inoculated at 1 to 3% to 10 ml of MRS medium or GAM medium Du zhong lignan (pinoresinol and medioresinol) was added at a final concentration of 0.5 mM in the medium, and continued to culture at 37° C. Samples were taken at regular intervals and assayed by HPLC to monitor the conversion of lignan to secoisolariciresinol.

Molecule	binding inhibition rate to estrogen receptor α, inhibition rate (%) [1]	binding inhibition rate to estrogen receptor β, inhibition rate (%) [2]	pinoresinol to secoisolariciresinol [3]	also measured
COc1cc([C@H]2OC[C@H]3[C@@H]2CO[C@@H]3c2ccc(O[C@@H]3O[C@H](CO)[C@@H](O)[C@H](O)[C@H]3O)c(OC)c2)ccc1O[C@@H]1O[C@H](CO)[C@@H](O)[C@H](O)[C@H]1O [pinoresinol diglycoside]	4%	5%		
Bifidobacterium			x	
Lactobacillus plantarum			x	
pinoresinol	23%	30%		
Lactobacillus reuteri			x	
COc1cc(C[C@@H](CO)[C@H](CO)Cc2ccc(O)c(OC)c2)ccc1O [secoisolariciresinol]	43%	52%		binding inhibition rate to an estrogen receptor relative to pinoresinol diglycoside ([1]; estrogen receptor subtype not specified, versus pinoresinol diglycoside): ten times higher
Lactobacillus acidophilus			∘	ability to produce secoisolariciresinol from pinoresinol (in words) ([3]; summary of Tables 1 to 3): capable of producing secoisolariciresinol from pinoresinol
